{"source": "patent US12134769B2", "about": "“MicroRNA-198 as a tumor suppressor in ovarian cancer” (Baylor College of Medicine, priority 2011, dated 2024)", "key": {"[1]": {"test_system": "AsPC1 cells", "test": "Apoptosis assay (TUNEL) after TNF-α", "assay_type": "cell-based, human", "settings": "AsPC1-miR-198 cells, TUNEL after TNF-α treatment", "description": "(§1) Apoptosis induction was determined using western blotting for Caspase 3 cleavage and confirmed by labeling DNA breaks using a terminal deoxynucleotidyltransferase dUTP nick end labeling (TUNEL) assay with the APO-DIRECT Kit (BD Biosciences) following 96 h of treatment (24 h serum starvation followed by 72 h of treatment with 20 ng/ml of TNF-α). Briefly, cells were plated in either 10% FBS media or serum-starved for 96 h, at which time 1×10^6 cells were harvested using trypsin-EDTA. After centrifugation, the pellets were washed twice with PBS, then resuspended in 1% paraformaldehyde in PBS and incubated on ice for 45 minutes. After several washes, the cell pellet again was resuspended in PBS/ethanol, incubated on ice for 30 minutes, and stored at −20° C. Cell samples were then pelleted, washed, and resuspended in 50 μL of DNA labeling solution containing a reaction buffer, terminal deoxynucleotidyl transferase enzyme, FITC-labeled deoxyuridine triphosphate nucleotides, and distilled water. After a 60-minute incubation at 37° C., cells were again washed, pelleted, and resuspended in 500 μl of propidium iodine/RNase staining buffer. Samples were then analyzed by flow cytometry (fluorescence-activated cell sorting) using a FACSCalibur (Becton Dickinson, Franklin Lakes, NJ). Data was further analyzed using the software FLOWJOW ver. 6.1.1 (Tree Star Inc.)."}, "[2]": {"test_system": "MIA-V cells", "test": "Apoptosis assay (TUNEL) after TNF-α", "assay_type": "cell-based, human", "settings": "TUNEL after TNF-α treatment", "description": "as §1"}, "[3]": {"test_system": "COS-7 cells", "test": "Co-transfection with MSLN ORF construct, western blot", "assay_type": "cell-based", "settings": "COS-7 cells co-transfected with WT MSLN plasmid and miR-198 precursors", "source_text": "A MSLN ORF clone was purchased from Origene (RC202532). Site-directed mutagenesis was used to generate constructs containing silent mutations in each of the three predicted miR-198 binding sites within the CDS of the MSLN gene (FIG. 13). MiR-198 precursors or a scrambled miRNA control were co-transfected into COS-7 cells along with either the WT MSLN ORF construct or each of the single, double, or triple mutants. Cell lysates were collected for western blot analysis. RNA and miRNA were collected for real-time RT-PCR analysis."}, "[4]": {"test_system": "AsPC1 cells", "test": "Cell proliferation assay (MTT)", "assay_type": "cell-based, human", "settings": "AsPC1-miR-198 cells", "description": "(§2) Cells were seeded in 96-well plates (2×10^3 cells per well) and serum starved for 24 h prior to differential FBS additions. 3-(4,5-Dimethylthiazol-2-yl)-2,5-diphenyltetrazolium bromide (MTT) was used to measure cell proliferation as previously described (Bharadwaj et al., 2011b).\n(§3) Cell growth was assessed using MTT at 2, 3, 4, 5 and 6 days after releasing from starvation (not all data shown). Briefly, twenty microliters of MTT reagent mixed with 100 μL of growth medium was added to each well and incubated at 37° C. for 2 h. Cells were then lysed overnight using 100 μl of lysis buffer consisting of 20% SDS in 1:1 dimethyl formamide; H2O solution. Absorbance was recorded at 520 nm with an EL-800 universal microplate reader (Bio-Tek Instruments). Relative proliferation was calculated by dividing the reading by a Day 0 reading taken prior to serum starvation."}, "[5]": {"test_system": "MIA-MSLN cells", "test": "Cell proliferation assay (MTT)", "assay_type": "cell-based, human", "settings": "MIA-MSLN-miR-198 cells, after 5 days", "description": "as §2, §3"}, "[6]": {"test_system": "PBX-1 3′UTR", "test": "Dual-luciferase reporter assay, PBX-1 3′UTR", "assay_type": "cell-based", "settings": "following miR-198 transfection/overexpression; firefly/Renilla ratio, 24 h", "description": "A luciferase construct containing the first 491 bases of the PBX-1 3′UTR was purchased from Switchgear Genomics. Two mutant PBX-1 3′UTR reporters were subsequently generated using the Stratagene Quickchange Site-directed Mutagenesis kit, with the WT miR-198 binding site seed region either altered from TCTGGA to AAGCTT (a HindIII restriction site) or deleted entirely (FIG. 10).\n(§4) Dual luciferase assays were performed according to the manufacturer's instruction. Luciferase expression analysis was performed at 24 h using the Dual-luciferase kit (Promega) and Sirius Luminometer (Berthold Detection System). Results are presented as the ratio of firefly to Renilla luciferase activities, normalized to controls.\nThe PBX-1 3′UTR region was cloned into the pSGG-3UTR vector (based on pGL4.11 vector with a MCS added after luciferase) after the reporter gene, firefly luciferase, whose expression is regulated by the SV40 promoter. A separate reporter for Renilla luciferase under the control of the CMV promoter was utilized to normalize for transfection efficiency. The identity of the 3′UTR sequence including the predicted miR-198 binding site was confirmed using the following primers: Fwd: […] [SEQ ID NO. 111], Rev: […]. [SEQ ID NO. 112]"}, "[7]": {"test_system": "VCP 3′UTR", "test": "Dual-luciferase reporter assay, VCP 3′UTR", "assay_type": "cell-based", "settings": "following miR-198 overexpression; firefly/Renilla ratio, 24 h", "source_text": "For MSLN, six constructs were generated: 400 or 600 bp segments containing the WT sequence or specific 3-nucleotide mutations in the seed region of each miR-198 binding site were synthesized by GenScript and subcloned into the pEZX-MT01 3′UTR construct from Genecopoeia at Xba1 and BamH1 restriction sites such that they were inserted after the luciferase gene (FIG. 10). The same process was used for the VCP reporter constructs containing the full-length VCP 3′UTR (FIG. 10).\nas §4"}, "[8]": {"test_system": "MIA-MSLN cells", "test": "Anchorage independent growth assay in soft agar", "assay_type": "cell-based, human", "settings": "MIA-MSLN-miR-198 vs MIA-MSLN, 15 days, ImageJ", "description": "A soft agar assay for colony formation was performed by coating 35 mm dishes with a combination of 0.5% base agar and 0.7% top agar. Base agar preparation: 1% LMP Agarose (DNA grade) (Baylor College of Medicine) was melted in 1× incomplete DMEM, microwaved, and cooled to 40° C. in a water bath. Equal volumes of 20% FBS DMEM pre-warmed to 40° C. in water bath were mixed to give 0.5% Agar+10% DMEM, of which 1.5 ml/35 m Petri dish was added and allowed to set at room temperature.\nTop agar preparation: 0.7% LMP Agarose (DNA grade) in 1×DMEM was prepared in the same manner as above. Cells were trypsinized and diluted to 0.1×10^6 cells/ml, in the 20% FBS DMEM; 5,000 cells/dish were plated in duplicate. The plates were then incubated at 37° C. in a humidified incubator for 15 days. Following incubation, the plates were stained with 0.5 ml of 1% MTT for 2 h, and colonies were photographed using a dissecting microscope. Images were analyzed using IMAGEJ software."}}}
{"substance": "miR-198: microRNA-198, SEQ ID NO: 1 gguccagaggggagauagg; used as transfected precursors (Ambion) or Lenti-miR stable overexpression (GGUCCAGAGGGGAGAUAGG; listed as RNA, chemistry not given here; listed as Homo sapiens)", "values": [{"measurement": "increase in number of cells undergoing apoptosis over controls", "setting": "[1]", "result": "> 90", "unit": "%"}, {"measurement": "apoptotic cells", "setting": "[2]", "result": "~75", "unit": "%"}, {"measurement": "expression of WT MSLN protein", "setting": "[3]", "result": "abolished expression of the WT MSLN protein"}, {"measurement": "proliferation rates vs AsPC1-miR-Ctrl cells", "setting": "[4]", "result": "significantly lower proliferation rates"}, {"measurement": "lower proliferation rates than MIA-MSLN and MIA-MSLN-miR-Ctrl cells", "setting": "[5]", "result": "approximately 3 fold"}, {"measurement": "reduction in PBX-1 3′UTR luciferase expression", "setting": "[6]", "result": 65, "unit": "%"}, {"measurement": "decrease in VCP 3′UTR luciferase activity", "setting": "[7]", "result": "~70", "unit": "%"}, {"measurement": "reduction in mean threshold intensity of soft agar colonies", "setting": "[8]", "result": "~20", "unit": "fold"}]}
